# Data published in patent US4129737A, “Process for the preparation of an 8-alkyl-5-oxo-5,8-dihydro-pyrido(2,3-d)pyrimidine-6-carboxylic acid” (priority 1972, dated 1978).
# Read-outs that look alike come from different tables or passages of the source.
# Tests used:
# Staphylococcus 209 P = test: Minimum inhibitory concentration by agar dilution, Staphylococcus 209 P; type: cell-based; conditions: Staphylococcus, 37° C., 18 hours, read-out: minimum inhibitory concentration (M.I.C.)
# B. subtilis = test: Minimum inhibitory concentration by agar dilution, B. subtilis; type: cell-based; conditions: Bacillus subtilis, 37° C., 18 hours, read-out: minimum inhibitory concentration (M.I.C.)
# Bord. bronchiseptica = test: Minimum inhibitory concentration by agar dilution, Bord. bronchiseptica; type: cell-based; conditions: Bordetella bronchiseptica, 37° C., 18 hours, read-out: minimum inhibitory concentration (M.I.C.)
# B. pyocyaneus TUR = test: Minimum inhibitory concentration by agar dilution, B. pyocyaneus TUR; type: cell-based; conditions: Pseudomonas aeruginosa, 37° C., 18 hours
# Esch. Coli 95 = test: Minimum inhibitory concentration by agar dilution, Esch. Coli 95; type: cell-based; conditions: Escherichia coli, 37° C., 18 hours, read-out: minimum inhibitory concentration (M.I.C.)
# Klebs. pneumoniae = test: Minimum inhibitory concentration by agar dilution, Klebs. pneumoniae; type: cell-based; conditions: Klebsiella pneumoniae, 37° C., 18 hours, read-out: minimum inhibitory concentration (M.I.C.)
# Salm. typhi = test: Minimum inhibitory concentration by agar dilution, Salm. typhi; type: cell-based; conditions: Salmonella enterica, 18 h
# Salm. typhi 0901 = test: Average MIC, solid medium (nutrient agar) dilution method; type: cell-based; conditions: Salmonella enterica, 18 h, read-out: minimum inhibitory concentration, average
# Sh. sonnei I.P.S. = test: as above; type: cell-based; conditions: Shigella sonnei, 18 h, average of five determinations, read-out: minimum inhibitory concentration, average
# [1] = tested on: Gram-negative microorganisms; test: In vitro anti-microbial activity on agar media, overall; type: cell-based
# Protocol: The products were tested on three Gram positive microorganisms (1 to 3) […] and on 10 Gram negative microorganisms (4 to 13).
# rats = test: Oral toxicity in rats; type: in vivo; conditions: doses as high as 4 g per kilogram
# mice = test: Oral toxicity in mice; type: in vivo; conditions: doses as high as 4 g per kilogram
# dog = conditions: in vivo, 100 mg/kg/day
# in vivo = conditions: dog, 2.5 mg/kg
# Protocol: In an experiment involving a 20 kg dog, 50 mg of the compound of Example VIII, corresponding to 2.5 mg/kg, were administered by means of a probang. The urine of the animal was removed by catheterisation at the 3rd and at the 7th hour, and the anti-bacterial activity of these samples was measured, taking the compound administered as the reference product.
# Staphylococcus 209P = test: Average MIC, solid medium (nutrient agar) dilution method; conditions: 18 h, read-out: minimum inhibitory concentration, average
# Staphylococcus SIM = test: as above; conditions: 18 h, read-out: minimum inhibitory concentration, average
# Streptococcus A561 = test: as above; conditions: A561, 18 h, read-out: minimum inhibitory concentration, average
# B. subtilis 6633 = test: as above; conditions: Bacillus subtilis, 6633, 18 h, read-out: minimum inhibitory concentration, average
# Bord. bronch. 4617 = test: as above; conditions: 18 h, read-out: minimum inhibitory concentration, average
# Ps. aeruginosa A22 = test: as above; conditions: Pseudomonas aeruginosa, A22, 18 h, read-out: minimum inhibitory concentration, average
# Esch. coli. 54-127 OMS = test: as above; conditions: Escherichia coli, 18 h, read-out: minimum inhibitory concentration, average
# Esch. coli. LRB 67 = test: as above; conditions: Escherichia coli, 18 h, read-out: minimum inhibitory concentration, average
# Esch. coli. Cho = test: as above; conditions: Escherichia coli, 18 h, read-out: minimum inhibitory concentration, average
# Klebs. pneumoniae 10.031 = test: as above; conditions: Klebsiella pneumoniae, 10.031, 18 h, read-out: minimum inhibitory concentration, average
# S. enteritidis DANYZ = test: as above; conditions: Salmonella enterica, 18 h, read-out: minimum inhibitory concentration, average
# S. oranienburg 10-66 = test: as above; conditions: Salmonella enterica, 1066, 18 h, read-out: minimum inhibitory concentration, average
# Providencia 0223 = test: as above; conditions: Providencia, 0223, 18 h, read-out: minimum inhibitory concentration, average
# Pr. vulgaris 12-53 = test: as above; conditions: Proteus vulgaris, 1253, 18 h, read-out: minimum inhibitory concentration, average
# [2] = N.A. (nutrient agar, pH 6.8), Table I
# [3] = T.S.A. (trypticase soya medium, pH 7.3)
smiles,measurement,setting,value
"CCn1cc(C(=O)O)c(=O)c2cnc(N3CCNCC3)nc21 [Example VIII, 2-Piperazino-5-oxo-8-ethyl-5,8-dihydro-pyrido(2,3-d)pyrimidine-6-carboxylicacid]",MIC,Staphylococcus 209 P; [2],12.5 µg/mL
same,MIC,Staphylococcus 209 P; [3],12.5 µg/mL
same,MIC,B. subtilis; [2],3.1 µg/mL
same,MIC,B. subtilis; [3],6.2 µg/mL
same,MIC,Bord. bronchiseptica; [2],12.5 µg/mL
same,MIC,Bord. bronchiseptica; [3],50 µg/mL
same,MIC,B. pyocyaneus TUR; [2],25 µg/mL
same,MIC,"B. pyocyaneus TUR; T.S.A. (trypticase soya medium, pH 7.3), read-out: minimum inhibitory concentration (M.I.C.)",> 100 µg/mL
same,MIC,Esch. Coli 95; [2],0.8 µg/mL
same,MIC,Esch. Coli 95; [3],0.8 µg/mL
same,MIC,Klebs. pneumoniae; [2],0.8 µg/mL
same,MIC,Klebs. pneumoniae; [3],1.6 µg/mL
same,MIC,"Salm. typhi; pH 6.8, read-out: minimum inhibitory concentration (M.I.C.)",6.2 µg/mL
same,MIC,"Salm. typhi; pH 7.3, read-out: minimum inhibitory concentration (M.I.C.)",1.6 µg/mL
same,MIC,Salm. typhi 0901,2.06 µg/mL
same,MIC,Sh. sonnei I.P.S.,0.56 µg/mL
same,activity against Gram-negative microorganisms,[1]; in vitro,particularly active against Gram-negative microorganisms
same,activity compared with nalidixic acid and the acid of Example III,"[1]; majority of the Gram negative microorganisms, Table III",more active on the majority of the Gram negative microorganisms than the 2 other substances
same,deaths,rats,no deaths were observed
same,deaths,mice,no deaths were observed
same,toxic signs,dog,without showing any toxic signs
same,urinary concentration at 7 hours relative to minimum inhibitory concentrations,in vivo,still very much greater than the minimum inhibitory concentrations
same,concentration at 3 h,in vivo; po,185 µg/mL
same,concentration at 7 h,in vivo; po,90 µg/mL
same,MIC,Staphylococcus 209P,6.22 µg/mL
same,MIC,Staphylococcus SIM,12.5 µg/mL
same,MIC,Streptococcus A561,13.7 µg/mL
same,MIC,B. subtilis 6633,8.1 µg/mL
same,MIC,Bord. bronch. 4617,75 µg/mL
same,MIC,Ps. aeruginosa A22,12.5 µg/mL
same,MIC,Esch. coli. 54-127 OMS,5.66 µg/mL
same,MIC,Esch. coli. LRB 67,1.2 µg/mL
same,MIC,Esch. coli. Cho,2.66 µg/mL
same,MIC,Klebs. pneumoniae 10.031,1.88 µg/mL
same,MIC,S. enteritidis DANYZ,1.2 µg/mL
same,MIC,S. oranienburg 10-66,27.5 µg/mL
same,MIC,Providencia 0223,16.2 µg/mL
same,MIC,Pr. vulgaris 12-53,0.36 µg/mL
